From article PMC6017957, “Synthesis, Anti-Proliferative Activity Evaluation and 3D-QSAR Study of Naphthoquinone Derivatives as Potential Anti-Colorectal Cancer Agents” (Molecules : A Journal of Synthetic Chemistry and Natural …, 2018)
Like-named read-outs stand apart in the source and are kept apart here.

How the values were obtained:
[1] = system: HT-29 colorectal cancer cells; test: MTT anti-proliferative assay against HT-29 cells; format: cell-based, human; details: for IC50: Homo sapiens; for Selectivity Index: SI = IC50Fibroblast/IC50HT-29cells; for Cytotoxic activity category against HT-29: classified by HT-29 IC50
Protocol: (§1) The toxicity of the thirty-six compounds was determined in vitro by means of the MTT assay. Doxorubicin, a drug widely used to treat different types of cancer, was employed as a positive control, whereas the solvent (DMSO) was used as negative control.
(§2) Test compounds were dissolved in DMSO to obtain stock solutions that were maintained as small aliquots at −20 °C. At time of drug addition, an aliquot was thawed and diluted to obtain the desired final maximum test concentration of 100 μM, with complete medium. The final percentage of DMSO in the wells was less than 1% (v/v). […] Anti-Proliferative Assay
(§3) Doxorubicin, a drug widely used to treat different types of cancer, was used as a positive control. After 48 h, the medium was removed and cells were incubated with MTT solution (0.25 mg/mL). Four hours later, the medium was carefully aspired and formazan crystals were dissolved in DMSO (100 μL). The OD550 was measured using a plate reader (Multiskan Go, Thermo Scientific, Waltham, MA, USA). […] The selectivity index (SI), was calculated as a ratio of IC50Fibroblast/IC50HT-29cells.
(§4) The results are expressed as the mean of triplicate measurements in at least two independent experiments.

fibroblasts PCS-201-012 = test: MTT cytotoxicity assay against normal dermal fibroblasts; format: cell-based; details: Fibroblast, value with 95% confidence interval, read-out: PCS-201-012 IC50 μM (95% CI)
Protocol: as §1, §2, §3, §4

[2] = HT-29, 48 h, MTT, 48 h, 0–100 µM, value with 95% confidence interval, read-out: HT-29 IC50 μM (95% CI)
[3] = HT-29, −logIC50 against HT-29, CoMFA training and test sets, read-out: pIC50 Experimental (converted)

| melting point | IC50 [1, 2] | IC50 [1, 3] | SMILES | Selectivity Index [1] | Cytotoxic activity category against HT-29 [1] | IC50 (fibroblasts PCS-201-012) |
| --- | --- | --- | --- | --- | --- | --- |
| 229.4 °C | 8.2 µM | 8.2 µM | O=C1c2ccccc2C(=O)c2occc21 [Compound 4j, Naphtho[2,3-b]furan-4,9-dione] | 1.01 | highly active | 8.28 µM |
| 124 °C | 8.36 µM | 8.36 µM | Cc1cc2c(o1)-c1ccccc1C(=O)C2=O [Compound 4g, 2-Methylnaphtho[1,2-b]furan-4,5-dione] | 0.23 | highly active | 1.93 µM |
